Test results from patent US9505745B2, “Enhancer of zeste homolog 2 inhibitors” (GlaxoSmithKline Intellectual Property (No.2) Limited, priority 2013, dated 2016).
Structures can show the parent of a compound that is named as a salt.

Each compound was assayed against EZH2 within the PRC2 complex (Homo sapiens (Human), UniProt Q15910) (assay: EZH2 methyltransferase SPA, biotinylated histone H3K27 peptide substrate (Assay Protocol 2)). Settings: 3H-SAM, ≦10 nM approaches limit of detection.
EZH2 within the PRC2 complex, sequence (Q15910 whole entry): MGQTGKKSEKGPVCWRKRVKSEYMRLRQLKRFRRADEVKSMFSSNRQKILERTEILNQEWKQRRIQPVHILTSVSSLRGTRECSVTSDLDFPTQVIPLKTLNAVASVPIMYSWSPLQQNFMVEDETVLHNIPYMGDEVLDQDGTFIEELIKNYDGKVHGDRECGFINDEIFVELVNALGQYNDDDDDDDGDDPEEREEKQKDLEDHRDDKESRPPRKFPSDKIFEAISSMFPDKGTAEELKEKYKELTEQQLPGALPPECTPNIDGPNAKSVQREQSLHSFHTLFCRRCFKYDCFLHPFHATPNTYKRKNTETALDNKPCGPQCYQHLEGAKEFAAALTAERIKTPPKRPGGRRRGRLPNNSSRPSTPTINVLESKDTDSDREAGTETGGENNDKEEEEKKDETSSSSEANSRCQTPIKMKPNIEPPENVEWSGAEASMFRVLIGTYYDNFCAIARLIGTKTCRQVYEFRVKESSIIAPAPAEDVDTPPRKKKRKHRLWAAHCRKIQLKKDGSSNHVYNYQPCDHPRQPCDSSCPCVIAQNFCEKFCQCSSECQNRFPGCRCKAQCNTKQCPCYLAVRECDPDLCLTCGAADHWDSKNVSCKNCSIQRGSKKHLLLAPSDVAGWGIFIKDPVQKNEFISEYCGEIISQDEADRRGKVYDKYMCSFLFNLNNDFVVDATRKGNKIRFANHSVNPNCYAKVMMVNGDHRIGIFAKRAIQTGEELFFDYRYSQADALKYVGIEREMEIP
EZH2 within the PRC2 complex, sequence (O75530 whole entry partner): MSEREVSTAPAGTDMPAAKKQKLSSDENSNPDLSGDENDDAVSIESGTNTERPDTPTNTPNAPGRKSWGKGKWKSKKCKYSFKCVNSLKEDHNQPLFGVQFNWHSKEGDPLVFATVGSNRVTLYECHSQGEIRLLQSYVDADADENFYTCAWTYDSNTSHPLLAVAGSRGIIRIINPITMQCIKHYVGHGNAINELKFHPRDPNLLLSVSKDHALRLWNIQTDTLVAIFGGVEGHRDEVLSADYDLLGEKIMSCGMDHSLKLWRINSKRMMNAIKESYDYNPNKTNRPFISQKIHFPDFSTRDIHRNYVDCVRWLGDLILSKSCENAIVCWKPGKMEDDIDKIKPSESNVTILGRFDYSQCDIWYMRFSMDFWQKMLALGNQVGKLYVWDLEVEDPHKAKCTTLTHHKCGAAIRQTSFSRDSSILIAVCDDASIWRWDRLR
EZH2 within the PRC2 complex, sequence (Q15022 whole entry partner): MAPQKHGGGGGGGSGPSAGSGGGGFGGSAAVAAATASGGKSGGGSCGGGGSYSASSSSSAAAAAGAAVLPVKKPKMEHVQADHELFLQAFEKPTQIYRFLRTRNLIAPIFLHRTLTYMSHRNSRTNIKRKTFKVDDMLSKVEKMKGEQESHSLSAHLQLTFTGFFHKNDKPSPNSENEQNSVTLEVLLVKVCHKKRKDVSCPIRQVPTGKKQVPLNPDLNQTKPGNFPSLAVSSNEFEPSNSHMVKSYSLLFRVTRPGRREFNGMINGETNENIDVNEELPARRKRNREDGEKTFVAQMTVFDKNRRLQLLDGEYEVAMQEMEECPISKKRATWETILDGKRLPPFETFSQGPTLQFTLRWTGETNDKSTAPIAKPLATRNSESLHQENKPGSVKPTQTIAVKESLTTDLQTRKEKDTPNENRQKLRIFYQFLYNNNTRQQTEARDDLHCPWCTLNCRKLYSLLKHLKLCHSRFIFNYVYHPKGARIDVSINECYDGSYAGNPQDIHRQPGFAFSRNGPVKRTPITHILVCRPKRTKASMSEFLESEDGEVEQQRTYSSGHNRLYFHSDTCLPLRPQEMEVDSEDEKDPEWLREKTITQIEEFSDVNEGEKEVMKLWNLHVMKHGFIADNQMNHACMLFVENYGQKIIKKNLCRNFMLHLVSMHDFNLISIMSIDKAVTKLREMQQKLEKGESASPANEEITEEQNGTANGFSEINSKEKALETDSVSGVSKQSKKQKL
EZH2 within the PRC2 complex, sequence (Q09028 whole entry partner): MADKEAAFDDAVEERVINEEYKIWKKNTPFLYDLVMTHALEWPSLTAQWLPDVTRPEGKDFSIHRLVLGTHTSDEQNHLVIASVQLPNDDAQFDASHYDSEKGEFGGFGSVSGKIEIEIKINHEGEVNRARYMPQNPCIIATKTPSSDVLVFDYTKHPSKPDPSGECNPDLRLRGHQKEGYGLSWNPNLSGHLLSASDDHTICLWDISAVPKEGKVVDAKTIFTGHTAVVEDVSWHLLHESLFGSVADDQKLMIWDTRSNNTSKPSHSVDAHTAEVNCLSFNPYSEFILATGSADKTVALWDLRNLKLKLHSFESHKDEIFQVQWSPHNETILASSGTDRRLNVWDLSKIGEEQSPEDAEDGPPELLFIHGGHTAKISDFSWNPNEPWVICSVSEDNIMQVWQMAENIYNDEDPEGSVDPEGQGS
EZH2 within the PRC2 complex, sequence (Q6ZN18 whole entry partner): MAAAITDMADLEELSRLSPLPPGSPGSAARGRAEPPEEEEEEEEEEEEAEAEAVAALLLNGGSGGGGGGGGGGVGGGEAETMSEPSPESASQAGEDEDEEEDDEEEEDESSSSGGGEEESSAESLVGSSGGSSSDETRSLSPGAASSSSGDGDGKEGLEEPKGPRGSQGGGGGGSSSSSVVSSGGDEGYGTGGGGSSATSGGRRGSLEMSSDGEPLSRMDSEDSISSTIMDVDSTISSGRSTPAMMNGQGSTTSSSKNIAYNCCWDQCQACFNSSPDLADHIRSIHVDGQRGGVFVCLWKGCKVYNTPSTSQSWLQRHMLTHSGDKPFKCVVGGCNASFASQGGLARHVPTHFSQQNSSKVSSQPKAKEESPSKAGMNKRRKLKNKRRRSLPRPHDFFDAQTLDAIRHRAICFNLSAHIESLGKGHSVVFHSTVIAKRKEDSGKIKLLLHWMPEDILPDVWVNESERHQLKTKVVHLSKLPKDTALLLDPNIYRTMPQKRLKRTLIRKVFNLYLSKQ
Assay type: biochemical
Procedure: Compounds contained herein were evaluated for their ability to inhibit the methyltransferase activity of EZH2 within the PRC2 complex. Human PRC2 complex was prepared by co-expressing each of the 5 member proteins (FLAG-EZH2, EED, SUZ12, RbAp48, AEBP2) in Sf9 cells followed by co-purification. Enzyme activity was measured in a scintillation proximity assay (SPA) where a tritiated methyl group is transferred from 3H-SAM to a lysine residue on a biotinylated, unmethylated peptide substrate derived from histone H3. The peptides were captured on streptavidin-coated SPA beads and the resulting signal was read on a ViewLux plate reader.
Part A. Compound Preparation
• 4. Prepare 10 mM stock of compounds from solid in 100% DMSO. • 5. Set up an 11-point serial dilution (1:4 dilution, top concentration 10 mM) in 100% DMSO for each test compound in a 384 well plate leaving columns 6 and 18 for DMSO controls. • 6. Dispense 10 nL of compound from the dilution plate into reaction plates (Corning, 384-well polystyrene NBS, Cat#3673). Part B. Reagent Preparation Prepare the following solutions: • 7. 1× Base Buffer, 50 mM Tris-HCl, pH 8, 2 mM MgCl2: Per 1 L of base buffer, combine 1 M Tris-HCl, pH 8 (50 mL), 1 M MgCl2 (2 mL), and distilled water (948 mL). • 8. 1× Assay Buffer: Per 10 mL of 1× Assay Buffer, combine 1× Base Buffer (9.96 mL), 1 M DTT (40 uL), and 10% Tween-20 (1 uL) to provide a final concentration of 50 mM Tris-HCl, pH 8, 2 mM MgCl2, 4 mM DTT, 0.001% Tween-20. • 9. 2× Enzyme Solution: Per 10 mL of 2× Enzyme Solution, combine 1× Assay Buffer (9.99 mL) and 3.24 uM EZH2 5 member complex (6.17 uL) to provide a final enzyme concentration of 1 nM. • 10. SPA Bead Solution: Per 1 mL of SPA Bead Solution, combine Streptavidin coated SPA beads (PerkinElmer, Cat#RPNQ0261, 40 mg) and 1× Assay Buffer (1 mL) to provide a working concentration of 40 mg/mL. • 11. 2× Substrate Solution: Per 10 mL of 2× Substrate Solution, combine 40 mg/mL SPA Bead Solution (375 uL), 1 mM biotinylated histone H3K27 peptide (200 uL), 12.5 uM 3H-SAM (240 uL; 1 mCi/mL), 1 mM cold SAM (57 uL), and 1× Assay Buffer (9.13 mL) to provide a final concentration of 0.75 mg/mL SPA Bead Solution, 10 uM biotinylated histone H3K27 peptide, 0.15 uM 3H-SAM (˜12 uCi/mL 3H-SAM), and 2.85 uM cold SAM. • 12. 2.67× Quench Solution: Per 10 mL of 2.67× Quench Solution, combine 1× Assay Buffer (9.73 mL) and 10 mM cold SAM (267 uL) to provide a final concentration of 100 uM cold SAM. Part C. Assay Reaction in 384-well Grenier Bio-One Plates Compound Addition • 3. Stamp 10 nL/well of 1000× Compound to test wells (as noted above). • 4. Stamp 10 nL/well of 100% DMSO to columns 6 & 18 (high and low controls, respectively). Assay • 10. Dispense 5 uL/well of 1× Assay Buffer to column 18 (low control reactions). • 11. Dispense 5 uL/well of 2× Substrate Solution to columns 1-24 (note: substrate solution should be mixed to ensure homogeneous bead suspension before dispensing into matrix reservoir). • 12. Dispense 5 uL/well of 2× Enzyme Solution to columns 1-17, 19-24. • 13. Incubate the reaction for 60 min at room temperature. Quench • 5. Dispense 6 uL/well of the 2.67× Quench Solution to columns 1-24. • 6. Seal assay plates and spin for ˜1 min at 500 rpm. • 7. Dark adapt plates in the ViewLux instrument for 15-60 min. Read plates • 2. Read the assay plates on the Viewlux Plate Reader utilizing the 613 nm emission filter or clear filter (300 s exposure). Reagent addition can be done manually or with automated liquid handler. Results
Percent inhibition was calculated relative to the DMSO control for each compound concentration and the resulting values were fit using standard IC50 fitting parameters within the ABASE data fitting software package.
`C/C=C(/CCCN1CCC(N(C)C)CC1)c1scc(C(=O)NCc2c(C)cc(C)[nH]c2=O)c1C` [Example 74, (Z)—N-((4,6-Dimethyl-2-oxo-1,2-dihydropyridin-3-yl)methyl)-5-(6-(4-(dimethylamino)piperidin-1-yl)hex-2-en-3-yl)-4-methylthiophene-3-carboxamide formate] showed an IC50 of 200 nM. `CCN(c1sc(N2CCN(C)CC2)c(C(=O)NCc2c(C)cc(C)[nH]c2=O)c1C)C1CCOCC1` [Example 56, N-((4,6-Dimethyl-2-oxo-1,2-dihydropyridin-3-yl)methyl)-5-(ethyl(tetrahydro-2H-pyran-4-yl)amino)-4-methyl-2-(4-methylpiperazin-1-yl)thiophene-3-carboxamide hydrochloride] was tested, and the IC50 was 501 nM. `CCN(c1sc(C2CCN(C(=O)OC(C)(C)C)CC2)c(C(=O)NCc2c(C)cc(C)[nH]c2=O)c1C)C1CCOCC1` [Example 59, tert-Butyl 4-(3-(((4,6-dimethyl-2-oxo-1,2-dihydropyridin-3-yl)methyl)carbamoyl)-5-(ethyl(tetrahydro-2H-pyran-4-yl)amino)-4-methylthiophen-2-yl)piperidine-1-carboxylate] was tested, and the IC50 was 316 nM. Work on `CCN(c1sc(C#N)c(C(=O)NCc2c(C)cc(C)[nH]c2=O)c1C)C1CCOCC1` [Example 55, 2-Cyano-N-((4,6-dimethyl-2-oxo-1,2-dihydropyridin-3-yl)methyl)-5-(ethyl(tetrahydro-2H-pyran-4-yl)amino)-4-methylthiophene-3-carboxamide hydrochloride] yielded an IC50 of 79 nM. In the case of `C/C=C(/c1scc(C(=O)NCc2c(C)cc(C)[nH]c2=O)c1C)[C@H]1CC[C@H](NC(=O)OC(C)(C)C)CC1` [Example 34, tert-Butyl ((trans)-4-((E)-1-(4-(((4,6-dimethyl-2-oxo-1,2-dihydropyridin-3-yl)methyl)carbamoyl)-3-methylthiophen-2-yl)prop-1-en-1-yl)cyclohexyl)carbamate], the IC50 is reported as 100 nM. `CCN(c1sc(C2CCN(S(C)(=O)=O)C2)c(C(=O)NCc2c(C)cc(C)[nH]c2=O)c1C)C1CCOCC1` (stereo not shown) [Example 62, N-((4,6-Dimethyl-2-oxo-1,2-dihydropyridin-3-yl)methyl)-5-(ethyl(tetrahydro-2H-pyran-4-yl)amino)-4-methyl-2-(1-(methylsulfonyl)pyrrolidin-3-yl)thiophene-3-carboxamide] was tested, and the IC50 was 501 nM. Work on `CCN(c1sc(-c2ccco2)c(C(=O)NCc2c(C)cc(C)[nH]c2=O)c1C)C1CCOCC1` [Example 76, N-((4,6-dimethyl-2-oxo-1,2-dihydropyridin-3-yl)methyl)-5-(ethyl(tetrahydro-2H-pyran-4-yl)amino)-2-(furan-2-yl)-4-methylthiophene-3-carboxamide] yielded an IC50 of 32 nM. `C/C=C(/CCN1CCOCC1)c1scc(C(=O)NCc2c(C)cc(C)[nH]c2=O)c1C` [Example 71, (Z)—N-((4,6-Dimethyl-2-oxo-1,2-dihydropyridin-3-yl)methyl)-4-methyl-5-(5-morpholinopent-2-en-3-yl)thiophene-3-carboxamide] was tested, and the IC50 was 1000 nM. With `CCN(c1sc(C2=CCN(C)CC2)c(C(=O)NCc2c(C)cc(C)[nH]c2=O)c1C)C1CCOCC1` [Example 61, N-((4,6-Dimethyl-2-oxo-1,2-dihydropyridin-3-yl)methyl)-5-(ethyl(tetrahydro-2H-pyran-4-yl)amino)-4-methyl-2-(1-methyl-1,2,3,6-tetrahydropyridin-4-yl)thiophene-3-carboxamide] the IC50 was 501 nM. With `CCN(c1sc(Cl)c(C(=O)NCc2c(C)cc(C)[nH]c2=O)c1C)C1CCOCC1` [Example 53, 2-Chloro-N-((4,6-dimethyl-2-oxo-1,2-dihydropyridin-3-yl)methyl)-5-(ethyl(tetrahydro-2H-pyran-4-yl)amino)-4-methylthiophene-3-carboxamide] the IC50 was 16 nM. In the case of `Cc1cc(C)c(CNC(=O)c2csc(N3CCCCC3C3CCNCC3)c2C)c(=O)[nH]1` (stereo not shown) [Example 69, 5-([2,4′-Bipiperidin]-1-yl)-N-((4,6-dimethyl-2-oxo-1,2-dihydropyridin-3-yl)methyl)-4-methylthiophene-3-carboxamide hydrochloride], the IC50 is reported as 501 nM. Work on `CCN(c1sc(-c2ccoc2)c(C(=O)NCc2c(C)cc(C)[nH]c2=O)c1C)C1CCOCC1` [Example 75, N-((4,6-dimethyl-2-oxo-1,2-dihydropyridin-3-yl)methyl)-5-(ethyl(tetrahydro-2H-pyran-4-yl)amino)-2-(furan-3-yl)-4-methylthiophene-3-carboxamide] yielded an IC50 of 25 nM. Work on `CCC(c1scc(C(=O)NCc2c(C)cc(C)[nH]c2=O)c1C)[C@H]1CC[C@@H](N(C)C)CC1` (single isomer, unassigned; (-)) [Example 47, (−)-N-((4,6-Dimethyl-2-oxo-1,2-dihydropyridin-3-yl)methyl)-5-(1-((cis)-4-(dimethylamino)cyclohexyl)propyl)-4-methylthiophene-3-carboxamide] yielded an IC50 of 13 nM. In the case of `CC[C@@H](c1scc(C(=O)NCc2c(C)cc(C)[nH]c2=O)c1C)N1CCC(N(C)C)CC1` [Example 41, (S)-(−)-N-((4,6-Dimethyl-2-oxo-1,2-dihydropyridin-3-yl)methyl)-5-(1-(4-(dimethylamino)piperidin-1-yl)propyl)-4-methylthiophene-3-carboxamide], the IC50 is reported as 20 nM. `C/C=C(/CCCN1CCN(C)CC1)c1scc(C(=O)NCc2c(C)cc(C)[nH]c2=O)c1C` [Example 72, (Z)—N-((4,6-Dimethyl-2-oxo-1,2-dihydropyridin-3-yl)methyl)-4-methyl-5-(6-(4-methylpiperazin-1-yl)hex-2-en-3-yl)thiophene-3-carboxamide] was tested, and the IC50 was 251 nM. With `CCN(c1sc(-c2cnn(C)c2)c(C(=O)NCc2c(C)cc(C)[nH]c2=O)c1C)C1CCOCC1` [Example 78, N-((4,6-dimethyl-2-oxo-1,2-dihydropyridin-3-yl)methyl)-5-(ethyl(tetrahydro-2H-pyran-4-yl)amino)-4-methyl-2-(1-methyl-1H-pyrazol-4-yl)thiophene-3-carboxamide] the IC50 was 100 nM. Work on `CCN(c1sc(Br)c(C(=O)NCc2c(C)cc(C)[nH]c2=O)c1C)[C@H]1CC[C@H](N(C)C)CC1` [Example 50, 2-Bromo-N-((4,6-dimethyl-2-oxo-1,2-dihydropyridin-3-yl)methyl)-5-(((trans)-4-(dimethylamino)cyclohexyl)(ethyl)amino)-4-methylthiophene-3-carboxamide hydrochloride] yielded an IC50 of 20 nM. `CCN(c1sc(C2CCN(S(C)(=O)=O)CC2)c(C(=O)NCc2c(C)cc(C)[nH]c2=O)c1C)C1CCOCC1` [Example 63, N-((4,6-Dimethyl-2-oxo-1,2-dihydropyridin-3-yl)methyl)-5-(ethyl(tetrahydro-2H-pyran-4-yl)amino)-4-methyl-2-(1-(methylsulfonyl)piperidin-4-yl)thiophene-3-carboxamide] was tested, and the IC50 was 501 nM. For `CCN(C)[C@H]1CC[C@H](N(CC)c2scc(C(=O)NCc3c(C)cc(C)[nH]c3=O)c2C)CC1` [Example 64, N-((4,6-dimethyl-2-oxo-1,2-dihydropyridin-3-yl)methyl)-5-(ethyl((trans)-4-(ethyl(methyl)amino)cyclohexyl)amino)-4-methylthiophene-3-carboxamide], the IC50 was 16 nM.
